Reference: the supplement of paper PMC10733146

Assays:
Test in all cases: viability relative to DMSO control (fraction); higher = less drug effect (more viable cells)
Conditions in all cases: 48 h
CPI-169 = compound: CCS(=O)(=O)N1CCC([C@@H](C)n2c(C)c(C(=O)NCc3c(OC)cc(C)[nH]c3=O)c3ccccc32)CC1 [CPI-169]
Method in brief: (§1)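 Compounds were pre-plated at five concentrations, one well each, in 384-well plates, and primary mononuclear tumour cells were plated on them at 4 × 10^4 cells per well. The cells, fresh or cryopreserved, had been Ficoll-isolated from blood or bone marrow or taken from processed lymph node. After 48 h at 37 °C and 5% CO2 in RPMI-1640 with penicillin/streptomycin, L-glutamine and human serum, viability was read as CellTiter-Glo luminescence relative to the median of 16 inner DMSO wells.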

Tofacitinib = compound: C[C@@H]1CCN(C(=O)CC#N)C[C@@H]1N(C)c1ncnc2[nH]ccc12 [Tofacitinib]
Method in brief: as §1

Everolimus = compound: CO[C@H]1C[C@@H]2CC[C@@H](C)[C@@](O)(O2)C(=O)C(=O)N2CCCC[C@H]2C(=O)O[C@H]([C@H](C)C[C@@H]2CC[C@@H](OCCO)[C@H](OC)C2)CC(=O)[C@H](C)/C=C(\C)[C@@H](O)[C@@H](OC)C(=O)[C@H](C)C[C@H](C)/C=C/C=C/C=C/1C [Everolimus]
Method in brief: as §1

EPZ-6438 = compound: CCN(c1cc(-c2ccc(CN3CCOCC3)cc2)cc(C(=O)NCc2c(C)cc(C)[nH]c2=O)c1C)C1CCOCC1 [EPZ-6438]
Method in brief: as §1

Bendamustine = compound: Cn1c(CCCC(=O)O)nc2cc(N(CCCl)CCCl)ccc21 [Bendamustine]
Method in brief: as §1

Etoposide = compound: COc1cc([C@@H]2c3cc4c(cc3[C@@H](O[C@@H]3O[C@@H]5CO[C@@H](C)O[C@H]5[C@H](O)[C@H]3O)[C@H]3COC(=O)[C@H]23)OCO4)cc(OC)c1O [Etoposide]
Method in brief: as §1

Selinexor = compound: O=C(/C=C\n1cnc(-c2cc(C(F)(F)F)cc(C(F)(F)F)c2)n1)NNc1cnccn1 [Selinexor]
Method in brief: as §1

Midostaurin hydrate = compound: CO[C@@H]1[C@H](N(C)C(=O)c2ccccc2)C[C@H]2O[C@]1(C)n1c3ccccc3c3c4c(c5c6ccccc6n2c5c31)C(=O)NC4 [Midostaurin hydrate]
Method in brief: as §1

SGC 0946 = compound: CC(C)N(CCCNC(=O)Nc1ccc(C(C)(C)C)cc1)C[C@H]1O[C@@H](n2cc(Br)c3c(N)ncnc32)[C@H](O)[C@@H]1O [SGC 0946]
Method in brief: as §1

Roscovitine = compound: CC[C@H](CO)Nc1nc(NCc2ccccc2)c2ncn(C(C)C)c2n1 [Roscovitine]
Method in brief: as §1

Entospletinib = compound: c1cn2cc(-c3ccc4cn[nH]c4c3)nc(Nc3ccc(N4CCOCC4)cc3)c2n1 [Entospletinib]
Method in brief: as §1

Barasertib = compound: CCN(CCCOc1ccc2c(Nc3cc(CC(=O)Nc4cccc(F)c4)[nH]n3)ncnc2c1)CCOP(=O)(O)O [Barasertib]
Method in brief: as §1

Palbociclib = compound: CC(=O)c1c(C)c2cnc(Nc3ccc(N4CCNCC4)cn3)nc2n(C2CCCC2)c1=O [Palbociclib]
Method in brief: as §1

Test System: primary AML patient cells (S006)
- viability (CPI-169; 0.024 µM): 0.992
- viability (CPI-169; 0.12 µM): 0.982
- viability (CPI-169; 0.6 µM): 1.03
- viability (CPI-169; 3 µM): 1.01
- viability (CPI-169; 15 µM): 1.06
- viability (Tofacitinib; 0.024 µM): 0.969
- viability (Tofacitinib; 0.12 µM): 0.904
- viability (Tofacitinib; 0.6 µM): 0.937
- viability (Tofacitinib; 3 µM): 0.842
- viability (Tofacitinib; 15 µM): 0.578
- viability (Everolimus; 0.0032 µM): 0.865
- viability (Everolimus; 0.016 µM): 0.853
- viability (Everolimus; 0.08 µM): 0.82
- viability (Everolimus; 0.4 µM): 0.758
- viability (Everolimus; 2 µM): 0.684
- viability (EPZ-6438; 0.024 µM): 1.03
- viability (EPZ-6438; 0.12 µM): 1.07
- viability (EPZ-6438; 0.6 µM): 1.1
- viability (EPZ-6438; 3 µM): 1.12
- viability (EPZ-6438; 15 µM): 1.15
- viability (Bendamustine; 0.032 µM): 0.999
- viability (Bendamustine; 0.16 µM): 1.04
- viability (Bendamustine; 0.8 µM): 1.04
- viability (Bendamustine; 4 µM): 0.987
- viability (Bendamustine; 20 µM): 0.616
- viability (Etoposide; 0.032 µM): 1.06
- viability (Etoposide; 0.16 µM): 0.966
- viability (Etoposide; 0.8 µM): 0.893
- viability (Etoposide; 4 µM): 0.67
- viability (Etoposide; 20 µM): 0.213
- viability (Selinexor; 0.008 µM): 0.885
- viability (Selinexor; 0.04 µM): 0.835
- viability (Selinexor; 0.2 µM): 0.811
- viability (Selinexor; 1 µM): 0.686
- viability (Selinexor; 5 µM): 0.532
- viability (Midostaurin hydrate; 0.024 µM): 0.669
- viability (Midostaurin hydrate; 0.12 µM): 0.585
- viability (Midostaurin hydrate; 0.6 µM): 0.529
- viability (Midostaurin hydrate; 3 µM): 0.638
- viability (Midostaurin hydrate; 15 µM): 0.709
- viability (SGC 0946; 0.024 µM): 0.991
- viability (SGC 0946; 0.12 µM): 0.944
- viability (SGC 0946; 0.6 µM): 0.899
- viability (SGC 0946; 3 µM): 0.836
- viability (SGC 0946; 15 µM): 0.557
- viability (Roscovitine; 0.032 µM): 1.08
- viability (Roscovitine; 0.16 µM): 1.07
- viability (Roscovitine; 0.8 µM): 1.03
- viability (Roscovitine; 4 µM): 1.04
- viability (Roscovitine; 20 µM): 0.576
- viability (Entospletinib; 0.024 µM): 1.08
- viability (Entospletinib; 0.12 µM): 0.973
- viability (Entospletinib; 0.6 µM): 0.886
- viability (Entospletinib; 3 µM): 0.945
- viability (Entospletinib; 15 µM): 0.925
- viability (Barasertib; 0.0008 µM): 0.925
- viability (Barasertib; 0.004 µM): 0.872
- viability (Barasertib; 0.02 µM): 0.865
- viability (Barasertib; 0.1 µM): 0.621
- viability (Barasertib; 0.5 µM): 0.442

Test System: primary T-NHL patient cells (S058)
- viability (CPI-169; 0.024 µM): 1.03
- viability (CPI-169; 0.12 µM): 1.06
- viability (CPI-169; 0.6 µM): 0.995
- viability (CPI-169; 3 µM): 1.05
- viability (CPI-169; 15 µM): 0.961
- viability (Tofacitinib; 0.024 µM): 0.865
- viability (Tofacitinib; 0.12 µM): 0.895
- viability (Tofacitinib; 0.6 µM): 0.94
- viability (Tofacitinib; 3 µM): 0.935
- viability (Tofacitinib; 15 µM): 0.937
- viability (Everolimus; 0.0032 µM): 0.922
- viability (Everolimus; 0.016 µM): 1.07
- viability (Everolimus; 0.08 µM): 0.954
- viability (Everolimus; 0.4 µM): 1.03
- viability (Everolimus; 2 µM): 0.944
- viability (EPZ-6438; 0.024 µM): 1.21
- viability (EPZ-6438; 0.12 µM): 1.24
- viability (EPZ-6438; 0.6 µM): 1.03
- viability (EPZ-6438; 3 µM): 1.16
- viability (EPZ-6438; 15 µM): 0.95
- viability (Bendamustine; 0.032 µM): 0.971
- viability (Bendamustine; 0.16 µM): 1.01
- viability (Bendamustine; 0.8 µM): 0.925
- viability (Bendamustine; 4 µM): 0.868
- viability (Bendamustine; 20 µM): 0.564
- viability (Etoposide; 0.032 µM): 0.838
- viability (Etoposide; 0.16 µM): 1.16
- viability (Etoposide; 0.8 µM): 0.739
- viability (Etoposide; 4 µM): 0.654
- viability (Etoposide; 20 µM): 0.268
- viability (Selinexor; 0.008 µM): 0.967
- viability (Selinexor; 0.04 µM): 0.877
- viability (Selinexor; 0.2 µM): 0.806
- viability (Selinexor; 1 µM): 0.709
- viability (Selinexor; 5 µM): 0.469
- viability (SGC 0946; 0.024 µM): 1.19
- viability (SGC 0946; 0.12 µM): 1.12
- viability (SGC 0946; 0.6 µM): 0.867
- viability (SGC 0946; 3 µM): 1.01
- viability (SGC 0946; 15 µM): 0.486
- viability (Entospletinib; 0.024 µM): 1.03
- viability (Entospletinib; 0.12 µM): 1.09
- viability (Entospletinib; 0.6 µM): 0.875
- viability (Entospletinib; 3 µM): 1.04
- viability (Entospletinib; 15 µM): 1.06
- viability (Palbociclib; 0.024 µM): 1.15
- viability (Palbociclib; 0.12 µM): 1.32
- viability (Palbociclib; 0.6 µM): 1.08
- viability (Palbociclib; 3 µM): 0.899
- viability (Palbociclib; 15 µM): 0.538
